Measured values from PMC12415477, “Electrostatic interactions influence diazabicyclooctane inhibitor potency against OXA-48-like β-lactamases” (RSC Medicinal Chemistry, 2025).

Experiments:
OXA-163 [1] = target: T1, OXA-163 (Klebsiella pneumoniae, UniProt Q6XEC0, DEL214-217/S212D); conditions: 1 nM enzyme, pH 7.6
Protocol: (§1) All enzyme kinetics experiments were performed in 50 mM HEPES pH 7.6, 50 mM NaPO4 buffer supplemented with 50 mM NaHCO3 and 50 μg mL^−1 bovine serum albumin (BSA) in 96-well half area plates (Greiner, 675801).

OXA-405 [2] = target: T2, OXA-405 (Klebsiella pneumoniae, UniProt Q6XEC0, DEL213-216); conditions: 1 nM enzyme, pH 7.6
Protocol: as §1

OXA-48 [3] = target: T3, OXA-48 (Klebsiella pneumoniae, UniProt Q6XEC0); conditions: cited from earlier work; for Binding affinities and complex residence times against OXA-48: in words
T3 construct: pOPINF-OXA-48^(23-265) (previously cloned as described in Cahill et al); hexahistidine tag with 3C protease site (pOPINF) (N, cleaved yes); made in house; host or cells: E. coli BL21-DE3

OXA-163 [4] = target: T1, OXA-163; experiment: IC50 determination, inhibition of nitrocefin hydrolysis by OXA-163; format: biochemical; parameters: genes encoding the mature OXA-163^23-261 (GenBank HQ700343); hexahistidine tag with 3C protease site (pOPINF) (N, cleaved yes); made in house; host or cells: E. coli BL21-DE3
OXA-405 [5] = experiment: IC50 determination, inhibition of nitrocefin hydrolysis by OXA-405; format: biochemical; conditions: IC50 OXA-48 / IC50 OXA-405
OXA-48 [6] = target: T3, OXA-48; experiment: IC50 determination, inhibition of nitrocefin hydrolysis by OXA-48; format: biochemical; conditions: for Fold difference in IC50, nacubactam versus avibactam, OXA-48: ratio nacubactam IC50 / avibactam IC50
OXA-163 [7] = experiment: IC50 determination, inhibition of nitrocefin hydrolysis by OXA-163; format: biochemical; conditions: IC50 OXA-48 / IC50 OXA-163
OXA-405 [8] = target: T2, OXA-405; experiment: IC50 determination, inhibition of nitrocefin hydrolysis by OXA-405; format: biochemical; parameters: genes encoding the mature OXA-163^23-261 (GenBank HQ700343) and OXA-405^23-261 (GenBank KM589641) open reading frames; hexahistidine tag with 3C protease site (pOPINF) (N, cleaved yes); made in house; host or cells: E. coli BL21-DE3
[9] = target: OXA-405 β-lactamase (mature, residues 23-261); experiment: crystal structure; X-ray structures of the purified enzymes, uncomplexed and soaked with nacubactam or avibactam; crystals grown in 0.1 M HEPES pH 7.5 or 0.1 M Tris pH 8.5-9.0 with PEG 400 or PEG 550; homodimer seen in the crystal, chloride ion at the dimer interface
[10] = system: O=C(Cc1cccs1)N[C@@H]1C(=O)N2C(C(=O)O)=C(/C=C/c3ccc([N+](=O)[O-])cc3[N+](=O)[O-])CS[C@H]12; experiment: purified protein, by the assay type; conditions: other: 1 nM enzyme, pH 7.6
crystal structure = target: the molecule itself; experiment: crystal structure
[11] = ratio nacubactam IC50 / avibactam IC50

O=C(Cc1cccs1)N[C@@H]1C(=O)N2C(C(=O)O)=C(/C=C/c3ccc([N+](=O)[O-])cc3[N+](=O)[O-])CS[C@H]12 [nitrocefin]
kcat, nitrocefin hydrolysis by OXA-163 (OXA-163 [1]): 64.5 s⁻¹ | Km (OXA-163 [1]; read-out: KM, nitrocefin hydrolysis by OXA-163): 13.4 µM | kcat, nitrocefin hydrolysis by OXA-405 (OXA-405 [2]): 113.9 s⁻¹ | Km (OXA-405 [2]; read-out: KM, nitrocefin hydrolysis by OXA-405): 33.9 µM

O=C(NO[C@@H]1CCNC1)[C@@H]1CC[C@@H]2CN1C(=O)N2OS(=O)(=O)O [FPI-1465]
Binding affinities and complex residence times against OXA-48 (OXA-48 [3]): lower binding affinities and complex residence times

NCCONC(=O)[C@@H]1CC[C@@H]2CN1C(=O)N2OS(=O)(=O)O [nacubactam]
IC50 (OXA-163 [4]): 1.23 µM | Fold difference in IC50, nacubactam versus avibactam, OXA-163 (OXA-163 [4]; [11]): 6.2 fold | Increase in inhibition potency towards OXA-405 compared to OXA-48 (OXA-405 [5]): 1.9 fold | IC50 (OXA-48 [6]; 1 nM enzyme pre-incubated 10 min with inhibitor, 75 μM nitrocefin, pH 7.6, read-out: IC50 against OXA-48): 19.9 µM | Fold difference in IC50, nacubactam versus avibactam, OXA-48 (OXA-48 [6]): 77 fold | Fold difference in IC50, nacubactam versus avibactam, OXA-48 (OXA-48 [6]; listed as Nacubactam): 76.6 fold | Decrease in enzyme : inhibitor residence time (t1/2) compared to avibactam, OXA-48 (OXA-48 [3]): approximately 37 fold | Increase in dissociation rate (koff) compared to avibactam, OXA-48 (OXA-48 [3]): ~36 fold | Increase in inhibition potency towards OXA-163 compared to OXA-48 (OXA-163 [7]): 16.2 fold | IC50 (OXA-405 [8]): 10.6 µM | Fold difference in IC50, nacubactam versus avibactam, OXA-405 (OXA-405 [8]; [11]): 10.7 fold

OXA-405 β-lactamase (mature, residues 23-261) (enzyme)
stoichiometry N [9]: 2

O=C(NNC(=O)[C@@H]1CC[C@@H]2CN1C(=O)N2OS(=O)(=O)O)C1CNC1 [FPI-1602]
Binding affinities and complex residence times against OXA-48 (OXA-48 [3]): lower binding affinities and complex residence times

OXA-48 (Klebsiella pneumoniae)
Km [10]: 114.4 µM | kcat [10]: 515.0 s⁻¹ | kcat/Km [10]: 5.2e+06 M⁻¹ s⁻¹

B1: OXA-163 β-lactamase (mature, residues 23-261) (enzyme)
chain: KEWQENKSWNAHFTEHKSQGVVVLWNENKQQGFTNNLKRANQAFLPASTFKIPNSLIALDLGVVKDEHQVFKWDGQTRDIATWNRDHNLITAMKYSVVPVYQEFARQIGEARMSKMLHAFDYGNEDISGNVDSFWLDGGIRISATEQISFLRKLYHNKLHVSERSQRIVKQAMLTEANGDYIIRAKTGYDTKIGWWVGWVELDDNVWFFAMNMDMPTSDGLGLRQAITKEVLKQEKIIP
notes: source: E. coli BL21-DE3, purified (Ni-NTA, 3C protease cleavage, second Ni-NTA, Superdex 75 SEC)
stoichiometry N (crystal structure): 2

B2: OXA-48 β-lactamase (residues 23-265) (enzyme)
chain: KEWQENKSWNAHFTEHKSQGVVVLWNENKQQGFTNNLKRANQAFLPASTFKIPNSLIALDLGVVKDEHQVFKWDGQTRDIATWNRDHNLITAMKYSVVPVYQEFARQIGEARMSKMLHAFDYGNEDISGNVDSFWLDGGIRISATEQISFLRKLYHNKLHVSERSQRIVKQAMLTEANGDYIIRAKTGYSTRIEPKIGWWVGWVELDDNVWFFAMNMDMPTSDGLGLRQAITKEVLKQEKIIP
notes: also called OXA-48^(23-265); OXA-48 carbapenemase; source: E. coli BL21-DE3, purified (Ni-NTA, 3C protease cleavage, second Ni-NTA, Superdex 75 SEC)
stoichiometry N (crystal structure): 2
